# Assay results reported in PubChem BioAssay AID1919016 (Molecular Pharmacology Branch, DTP, NCI, 2023).
# pIC50: −log10 of the molar value. Values joined by “and” are separate entries in the source; they are usually repeats but may differ in a detail not shown here. Equal entries are not always repeated.
# System: NCI-H196 complex spheroid growth, percent test/control
# Assay: Anticancer human tumor NCI-H196 cell line growth inhibition [AhR];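 further: seven days of drug exposure starting three days after plating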;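 on viability, T/C: 100% = DMSO vehicle control wells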
# Details: for viability, T/C: stronger effect = lower value
# Procedure, shortened: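 Spheroids combined tumor cells with HUVEC endothelial cells and human MSCs as stroma. AhR antagonists were paired with standard or investigational drugs, each dosed in half-log steps down from near clinical Cmax, or from 10 microM where Cmax was unknown.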
# [1] = curve of first compound, second compound 0.1 µM
# [2] = curve of first compound, second compound 0.316 µM
# [3] = curve of first compound, second compound 1 µM
# [4] = curve of first compound, second compound 3.16 µM
# [5] = curve of first compound, second compound 10 µM
# [6] = second compound 0.1 µM, first compound 0.0316 µM
# [7] = second compound 0.1 µM, first compound 0.1 µM
# [8] = second compound 0.1 µM, first compound 0.316 µM
# [9] = second compound 0.1 µM, first compound 1 µM
# [10] = second compound 0.1 µM, first compound 3.16 µM
# [11] = second compound 0.1 µM, first compound 10 µM
# [12] = second compound 0.316 µM, first compound 0.0316 µM
# [13] = second compound 0.316 µM, first compound 0.1 µM
# [14] = second compound 0.316 µM, first compound 0.316 µM
# [15] = second compound 0.316 µM, first compound 1 µM
# [16] = second compound 0.316 µM, first compound 3.16 µM
# [17] = second compound 0.316 µM, first compound 10 µM
# [18] = second compound 1 µM, first compound 0.0316 µM
# [19] = second compound 1 µM, first compound 0.1 µM
# [20] = second compound 1 µM, first compound 0.316 µM
# [21] = second compound 1 µM, first compound 1 µM
# [22] = second compound 1 µM, first compound 3.16 µM
# [23] = second compound 1 µM, first compound 10 µM
# [24] = second compound 3.16 µM, first compound 0.0316 µM
# [25] = second compound 3.16 µM, first compound 0.1 µM
# [26] = second compound 3.16 µM, first compound 0.316 µM
# [27] = second compound 3.16 µM, first compound 1 µM
# [28] = second compound 3.16 µM, first compound 3.16 µM
# [29] = second compound 3.16 µM, first compound 10 µM
# [30] = second compound 10 µM, first compound 0.0316 µM
# [31] = second compound 10 µM, first compound 0.1 µM
# [32] = second compound 10 µM, first compound 0.316 µM
# [33] = second compound 10 µM, first compound 1 µM
# [34] = second compound 10 µM, first compound 3.16 µM
# [35] = second compound 10 µM, first compound 10 µM
compound,measurement,setting,value
CCN(c1cc(-c2ccc(CN3CCOCC3)cc2)cc(C(=O)NCc2c(C)cc(C)[nH]c2=O)c1C)C1CCOCC1 + Cc1ccccc1N=Nc1ccc(NC(=O)c2ccnn2C)c(C)c1,pIC50,[1],< 5.52
same,pIC50,[2],< 5.52
same,pIC50,[3],< 5.52
same,pIC50,[4],< 5.52
same,pIC50,[5],< 5.52
same,"viability, T/C","second compound 0.1 µM, first compound 0.00949 µM",95%
same,"viability, T/C","second compound 0.1 µM, first compound 0.03 µM",104%
same,"viability, T/C","second compound 0.1 µM, first compound 0.0949 µM",103%
same,"viability, T/C","second compound 0.1 µM, first compound 0.3 µM",104%
same,"viability, T/C","second compound 0.1 µM, first compound 0.949 µM",90.2%
same,"viability, T/C","second compound 0.1 µM, first compound 3 µM",89.6%
same,"viability, T/C","second compound 0.316 µM, first compound 0.00949 µM",104%
same,"viability, T/C","second compound 0.316 µM, first compound 0.03 µM",99.2%
same,"viability, T/C","second compound 0.316 µM, first compound 0.0949 µM",102%
same,"viability, T/C","second compound 0.316 µM, first compound 0.3 µM",97.3%
same,"viability, T/C","second compound 0.316 µM, first compound 0.949 µM",94.7%
same,"viability, T/C","second compound 0.316 µM, first compound 3 µM",96.3%
same,"viability, T/C","second compound 1 µM, first compound 0.00949 µM",98.6%
same,"viability, T/C","second compound 1 µM, first compound 0.03 µM",98.1%
same,"viability, T/C","second compound 1 µM, first compound 0.0949 µM",111%
same,"viability, T/C","second compound 1 µM, first compound 0.3 µM",103%
same,"viability, T/C","second compound 1 µM, first compound 0.949 µM",101%
same,"viability, T/C","second compound 1 µM, first compound 3 µM",107%
same,"viability, T/C","second compound 3.16 µM, first compound 0.00949 µM",93%
same,"viability, T/C","second compound 3.16 µM, first compound 0.03 µM",103%
same,"viability, T/C","second compound 3.16 µM, first compound 0.0949 µM",105%
same,"viability, T/C","second compound 3.16 µM, first compound 0.3 µM",98.1%
same,"viability, T/C","second compound 3.16 µM, first compound 0.949 µM",93.2%
same,"viability, T/C","second compound 3.16 µM, first compound 3 µM",96.3%
same,"viability, T/C","second compound 10 µM, first compound 0.00949 µM",89.9%
same,"viability, T/C","second compound 10 µM, first compound 0.03 µM",97.8%
same,"viability, T/C","second compound 10 µM, first compound 0.0949 µM",92.9%
same,"viability, T/C","second compound 10 µM, first compound 0.3 µM",89.7%
same,"viability, T/C","second compound 10 µM, first compound 0.949 µM",90.1%
same,"viability, T/C","second compound 10 µM, first compound 3 µM",102%
COc1cccc2c1C(=O)c1c(O)c3c(c(O)c1C2=O)CC(O)(C(=O)CO)CC3OC1CC(N)C(O)C(C)O1 (configuration not stated) + CC(CO)NC(=O)c1cc(-c2ccc(Cl)cc2)nn(-c2cnn(C)c2)c1=O,pIC50,[1],6.03
same,pIC50,[2],5.97
same,pIC50,[3],6.01
same,pIC50,[4],6.05
same,pIC50,[5],6.14
same,"viability, T/C",[6],109%
same,"viability, T/C",[7],105%
same,"viability, T/C",[8],85.6%
same,"viability, T/C",[9],52.8%
same,"viability, T/C",[10],1.78%
same,"viability, T/C",[11],0.87%
same,"viability, T/C",[12],102%
same,"viability, T/C",[13],116%
same,"viability, T/C",[14],100%
same,"viability, T/C",[15],53.8%
same,"viability, T/C",[16],1.55%
same,"viability, T/C",[17],1.77%
same,"viability, T/C",[18],110%
same,"viability, T/C",[19],116%
same,"viability, T/C",[20],101%
same,"viability, T/C",[21],49.6%
same,"viability, T/C",[22],1.06%
same,"viability, T/C",[23],2.36%
same,"viability, T/C",[24],113%
same,"viability, T/C",[25],110%
same,"viability, T/C",[26],104%
same,"viability, T/C",[27],44.4%
same,"viability, T/C",[28],0.77%
same,"viability, T/C",[29],1.04%
same,"viability, T/C",[30],119%
same,"viability, T/C",[31],122%
same,"viability, T/C",[32],89.9%
same,"viability, T/C",[33],36.6%
same,"viability, T/C",[34],0.56%
same,"viability, T/C",[35],2.67%
COc1cc(Nc2ncc3c(n2)-c2ccc(Cl)cc2C(c2c(F)cccc2OC)=NC3)ccc1C(=O)O,"viability, T/C",compound 0.0316 µM,91.6% and 84.6% and 104%
same,"viability, T/C",compound 0.1 µM,92.1% and 90.5% and 106%
same,"viability, T/C",compound 0.316 µM,109% and 92.9% and 107%
same,"viability, T/C",compound 1 µM,117% and 90.2% and 116%
same,"viability, T/C",compound 3.16 µM,114% and 120% and 121%
same,"viability, T/C",compound 10 µM,125% and 108% and 132%
same,pIC50,curve of compound,< 5.00
O=C(C=Cc1cccc(S(=O)(=O)Nc2ccccc2)c1)NO + CC(CO)NC(=O)c1cc(-c2ccc(Cl)cc2)nn(-c2cnn(C)c2)c1=O,pIC50,[1],5.79
same,pIC50,[2],5.75
same,pIC50,[3],5.69
same,pIC50,[4],5.76
same,pIC50,[5],5.74
same,"viability, T/C",[6],107%
same,"viability, T/C",[7],92.2%
same,"viability, T/C",[8],91.3%
same,"viability, T/C",[9],72.2%
same,"viability, T/C",[10],21.6%
same,"viability, T/C",[11],1.02%
same,"viability, T/C",[12],109%
same,"viability, T/C",[13],98.1%
same,"viability, T/C",[14],98.9%
same,"viability, T/C",[15],71.2%
same,"viability, T/C",[16],28%
same,"viability, T/C",[17],0.59%
same,"viability, T/C",[18],101%
same,"viability, T/C",[19],99.5%
same,"viability, T/C",[20],102%
same,"viability, T/C",[21],83.7%
same,"viability, T/C",[22],28.5%
same,"viability, T/C",[23],0.5%
same,"viability, T/C",[24],108%
same,"viability, T/C",[25],109%
same,"viability, T/C",[26],102%
same,"viability, T/C",[27],74.1%
same,"viability, T/C",[28],24.3%
same,"viability, T/C",[29],0.54%
same,"viability, T/C",[30],119%
same,"viability, T/C",[31],106%
same,"viability, T/C",[32],99.9%
same,"viability, T/C",[33],75.1%
same,"viability, T/C",[34],26.9%
same,"viability, T/C",[35],0.56%
COc1cccc2c1C(=O)c1c(O)c3c(c(O)c1C2=O)CC(O)(C(=O)CO)CC3OC1CC(N)C(O)C(C)O1 (configuration not stated) + Cc1ccccc1N=Nc1ccc(NC(=O)c2ccnn2C)c(C)c1,pIC50,[1],6.18
same,pIC50,[2],6.18
same,pIC50,[3],6.18
same,pIC50,[4],6.19
same,pIC50,[5],6.06
same,"viability, T/C",[6],113%
same,"viability, T/C",[7],102%
same,"viability, T/C",[8],79.4%
same,"viability, T/C",[9],36.2%
same,"viability, T/C",[10],3.08%
same,"viability, T/C",[11],7.85%
same,"viability, T/C",[12],101%
same,"viability, T/C",[13],100%
same,"viability, T/C",[14],76.8%
same,"viability, T/C",[15],36.7%
same,"viability, T/C",[16],1.54%
same,"viability, T/C",[17],5.07%
same,"viability, T/C",[18],99.5%
same,"viability, T/C",[19],105%
same,"viability, T/C",[20],78.5%
same,"viability, T/C",[21],35.9%
same,"viability, T/C",[22],2.43%
same,"viability, T/C",[23],8.49%
same,"viability, T/C",[24],91.5%
same,"viability, T/C",[25],93.8%
same,"viability, T/C",[26],76.6%
same,"viability, T/C",[27],34.7%
same,"viability, T/C",[28],2.43%
same,"viability, T/C",[29],13%
same,"viability, T/C",[30],97.2%
same,"viability, T/C",[31],92.2%
same,"viability, T/C",[32],90.7%
same,"viability, T/C",[33],44.3%
same,"viability, T/C",[34],2.3%
same,"viability, T/C",[35],12.7%
